Results on two compounds are retold here after article PMC12539867, “Systematic identification of terpene synthases from sacred lotus (Nelumbo nucifera) and heterologous biosynthesis of the insecticidal and antimicrobial compound γ-eudesmol” (Horticulture Research, 2025).

For test [1], the system named is T1, NnTPS10.
T1 construct: TPS-a; 565 residues; codon-optimised; purified from E. coli for kinetics; S. cerevisiae JCR27 for mutants; N314, L530, V537; D461-Y537-D541 triad also printed
Description: steady-state kinetics, purified enzyme. The format is biochemical, Nelumbo nucifera. To be noted: 25 °C, pH 7.5.

Test [2] concerns the target T2, NnTPS5 (Nelumbo nucifera, UniProt A0A822ZHR2).
T2 construct: gene HUJ06_002290; codon-optimised; S. cerevisiae JCR27 with NnTPS6 or NnTPS7 and GGPPS
T2 sequence (A0A822ZHR2 41-812): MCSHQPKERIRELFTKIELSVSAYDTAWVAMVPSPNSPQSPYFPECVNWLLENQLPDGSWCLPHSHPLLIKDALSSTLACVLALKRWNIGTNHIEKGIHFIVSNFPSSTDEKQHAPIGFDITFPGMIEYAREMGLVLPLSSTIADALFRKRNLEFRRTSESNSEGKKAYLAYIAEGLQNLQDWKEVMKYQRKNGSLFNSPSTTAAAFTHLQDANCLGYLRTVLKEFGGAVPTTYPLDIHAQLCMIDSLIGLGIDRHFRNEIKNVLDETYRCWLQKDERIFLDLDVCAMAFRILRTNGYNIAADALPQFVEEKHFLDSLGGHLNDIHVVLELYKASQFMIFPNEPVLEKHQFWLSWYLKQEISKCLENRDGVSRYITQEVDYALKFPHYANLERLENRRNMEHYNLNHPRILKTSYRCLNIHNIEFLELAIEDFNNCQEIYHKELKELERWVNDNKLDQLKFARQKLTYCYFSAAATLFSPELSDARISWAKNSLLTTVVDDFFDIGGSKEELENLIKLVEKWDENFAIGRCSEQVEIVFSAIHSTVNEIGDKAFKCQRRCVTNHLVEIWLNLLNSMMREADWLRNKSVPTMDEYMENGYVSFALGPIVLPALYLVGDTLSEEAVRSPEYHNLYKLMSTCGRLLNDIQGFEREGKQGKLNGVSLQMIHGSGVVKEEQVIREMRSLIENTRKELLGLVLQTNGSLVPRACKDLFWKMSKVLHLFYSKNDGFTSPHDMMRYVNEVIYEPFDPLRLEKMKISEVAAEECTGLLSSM
Description: yeast co-expression with GGPPS and NnTPS6 or NnTPS7, GC-MS of ent-kaurene. It is filed as cell-based. To be noted: substrate formed in the cell.

Each structure is given as a SMILES string.

As to `CC(C)=CCC/C(C)=C/CC/C(C)=C/COP(=O)(O)OP(=O)(O)O` [FPP], the Km (as a rule, the substrate concentration at which the rate is half of its maximum) in test [1] is 16.7 µM. In the case of `C=C1CC[C@@H]2C(C)(C)CCC[C@@]2(C)[C@@H]1CC/C(C)=C/COP(=O)(O)OP(=O)(O)O` [ent-CPP], the “yeast co-expression with GGPPS and NnTPS6 or NnTPS7, GC-MS of ent-kaurene” value in test [2] is “combining NnTPS6, NnTPS5, and GGPPS, a new product (D1) can be identified as ent-kaurene”.
